Reference: patent publication US20240075087A1, “COMPOSITIONS AND METHODS COMPRISING HEMP EXTRACT FOR THE TREATMENT OF ANIMALS IN NEED” (Portland Technology Holdings LLC, priority 2021, published 2024)
≈ marks a conversion by molar mass, not a printed value.

How the values were obtained:
[1] = molecular target: CYP3A12 (Canis lupus familiaris, UniProt P24463); assay: CYP3A12 activity inhibition in pooled dog liver microsomes
Description: Inhibition potency (i.e. IC50) is determined by measuring the decrement in metabolism of P450-specific marker activities in pooled dog liver microsomes with increasing concentrations of CBD, CBDA, and hemp extracts. P450-specific markers include bupropion 6-hydroxylation (CYP2B11), dextromethorphan 0-demethylation (CYP2D15) and omeprazole sulfoxidation (CYP3A12). IC50 values are determined both with and without preincubation of liver microsomes with potential inhibitor to evaluate whether there is mechanism-based time-dependent inhibition.
The following parameters are assessed: (1) the rates of CBD and CBDA metabolism by dog liver microsomes and by 11 recombinant canine P450 enzymes; (2) the predicted percent contribution of each P450 to total CBD and CBDA metabolism in dog liver; and (3) IC50 values for inhibition of CYP2B11, CYP2D15 and CYP3A12 metabolism in dog liver, both with and without inhibitor preincubation.
FIGS. 13-15 show activity assays for CYP3A12 (FIGS. 13A and 13B), CYP2B11 (FIGS. 14A and 14B), and CYP2D15 (FIGS. 15A and 15B). Assays using either no preincubation (FIGS. 13A, 14A, and 15A) or 20 minutes of preincubation (FIGS. 13B, 14B, and 15B) were performed.

[2] = molecular target: T1, canine P-glycoprotein (Canis lupus familiaris, UniProt C0KKU9); assay: P-glycoprotein competitive transport assay (rhodamine 123, MDCK PGP cells); format: in vitro ADME; conditions: highest concentration tested, 1,000 ng/mL
T1 construct: host or cells: MDCK PGP cells (canine P-gp expressing cell line)
T1 sequence (C0KKU9 1-1281): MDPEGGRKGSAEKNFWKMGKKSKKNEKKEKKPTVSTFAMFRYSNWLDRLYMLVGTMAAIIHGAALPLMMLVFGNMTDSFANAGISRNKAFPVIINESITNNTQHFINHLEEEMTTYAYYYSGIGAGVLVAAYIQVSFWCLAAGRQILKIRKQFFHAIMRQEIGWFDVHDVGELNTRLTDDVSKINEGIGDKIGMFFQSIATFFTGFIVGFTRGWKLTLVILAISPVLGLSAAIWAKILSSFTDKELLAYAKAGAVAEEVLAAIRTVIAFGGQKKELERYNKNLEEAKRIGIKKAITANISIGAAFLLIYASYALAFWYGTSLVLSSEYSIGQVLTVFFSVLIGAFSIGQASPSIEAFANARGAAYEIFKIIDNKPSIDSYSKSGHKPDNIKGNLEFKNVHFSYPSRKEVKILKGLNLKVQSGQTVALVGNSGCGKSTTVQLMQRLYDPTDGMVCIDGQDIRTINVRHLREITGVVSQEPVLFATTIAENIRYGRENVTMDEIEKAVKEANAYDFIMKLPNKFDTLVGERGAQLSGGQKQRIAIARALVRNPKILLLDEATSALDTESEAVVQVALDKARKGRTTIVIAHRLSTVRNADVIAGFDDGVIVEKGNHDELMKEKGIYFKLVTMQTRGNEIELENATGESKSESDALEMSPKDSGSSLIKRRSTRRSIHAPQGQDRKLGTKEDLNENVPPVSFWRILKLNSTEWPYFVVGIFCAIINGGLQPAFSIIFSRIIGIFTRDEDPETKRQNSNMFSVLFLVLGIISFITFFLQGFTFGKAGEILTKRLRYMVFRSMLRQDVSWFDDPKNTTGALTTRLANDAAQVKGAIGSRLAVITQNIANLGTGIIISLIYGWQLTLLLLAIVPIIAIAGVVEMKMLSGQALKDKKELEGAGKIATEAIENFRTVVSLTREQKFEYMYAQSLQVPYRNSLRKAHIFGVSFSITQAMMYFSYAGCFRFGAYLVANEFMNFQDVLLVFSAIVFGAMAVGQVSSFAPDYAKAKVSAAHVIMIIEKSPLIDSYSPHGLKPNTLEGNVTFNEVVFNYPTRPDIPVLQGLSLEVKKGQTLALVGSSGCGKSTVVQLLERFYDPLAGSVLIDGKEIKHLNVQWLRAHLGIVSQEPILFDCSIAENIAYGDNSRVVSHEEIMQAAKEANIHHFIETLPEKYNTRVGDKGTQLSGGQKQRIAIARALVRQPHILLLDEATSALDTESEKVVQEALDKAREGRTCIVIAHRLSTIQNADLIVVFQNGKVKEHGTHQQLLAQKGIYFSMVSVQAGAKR
Description: In this second study, a competitive P-gp substrate assay incorporating a canine P-gp expressing cell line is used to assess each test compound's ability to compete with the P-gp substrate rhodamine 123. Each concentration is tested on 3 separate days with same-day duplicates. Positive controls and negative controls are included in each run.
Results for each concentration of test compound evaluated are reported as non-P-gp substrate, weak P-gp substrate, moderate P-gp substrate, or strong P-gp substrate. The concentrations for CBD and CBDA are as follows: 10 ng/mL, 100 ng/mL and 1,000 ng/mL.
A competitive P-gp substrate assay using a canine P-gp expressing cell line was used to assess CBDA and/or CBD as a substrate for canine P-glycoprotein.

[3] = tested on: D17 osteosarcoma cell line; assay: 48 hours MTT proliferation assay, D17; format: cell-based, canine; conditions: pure compound
Description: 3-(4,5-Dimethylthaizol-2-yl)-2,5-diphenyltetrazolium bromide (MTT) assays are performed on all previously described cell lines; CMT12, HMPOS, D17, Abrams and 17-71. […] Cells are treated with vehicle (methanol or ethanol/DMSO mix) or various concentrations of the CBD, CBDA or CBD-rich hemp extract ranging from 0.42 to 20 μg/mL in serial dilution for 48 hours. MTT assays are performed after 48 hours of treatment by adding 20 μL of MTT dye ([…] filtered 5 mg/mL in phosphate-buffered saline [PBS]) to each well and incubating at 37° C. in 5% CO2 for 2 hours. The media is then aspirated, washed once with 200 μL of PBS and then solubilized in 200 μL of ethanol. Immediate analysis of the optical density of each well is performed using a spectrophotometric plate reader (Epoch; Biotek, Winooski, Vermont) at a wavelength of 570 nm as previously described (e.g., Vega-Avila E and Pugsley M K, An overview of colorimetric assay methods used to assess survival or proliferation of mammalian cells, Proc West Pharmacol Soc., 2011, 54, pp. 10-14 which is incorporated herein by reference in its entirety). The percent proliferating cells of control for each concentration is averaged and reported as a mean+/—SD from triplicate wells over three experiments.
For CBD, CBDA and hemp extract concentrations needed to obtain a 50% inhibition of cell proliferation (IC50) are then calculated across experiments by Probit analysis using XLFit5 software (IDBS, Guildford, United Kingdom) for reporting the results for each cell line.

[4] = tested on: canine primary dermal fibroblasts (CDF); assay: Trypan blue exclusion assay, dermal fibroblasts; format: cell-based; conditions: 48 hours, vehicle control 16±3%
Description: (§1) The trypan blue exclusion assay is performed on canine primary dermal fibroblasts (CDF) because of the slow rate of proliferation and low metabolic activity of these normal canine cells, precluding productive MTT assays. The effects of CBD treatments are compared with the results obtained on the 17-71, CMT12 and D17 cell lines for comparative purposes. For the CDF cells, applied cell extracellular matrix (ABM) is applied overnight to 24-well tissue culture-treated plates (Applied Biological Materials [ABM], Richmond, BC, Canada). For all cell lines, cells are plated at a density of 5×10^3 cells per well and incubated until 60% confluent before treatment with methanol vehicle control, 3.75, 7.5, and 15 μg/mL of CBD to cells for 48 hours. Cells are then trypsinized, collected and centrifuged at 1900 g for 10 minutes. With the exception of the 17-71 cell line, cells are detached with Accumax (Invitrogen, Carlsbad, California). The cell pellet is resuspended in 0.1% trypan blue (Sigma Aldrich, St Louis, Missouri) in PBS solution, loaded on a Cell Countess disposable cell counting slide with automatic counting of all positively stained cells in the Countess II Cell Counter under identical settings for each cell line (Invitrogen; ThermoFisher Scientific, Carlsbad, California) using the same parameters for each cell line. All treatments are performed in triplicate and the percent of viable cells are averaged.

[5] = tested on: D17 cells; assay: Trypan blue exclusion assay, D17; format: cell-based, canine; conditions: 48 hours, vehicle control 5±1%
Description: as §1

[6] = tested on: 17-71 cell line; assay: Annexin V-FITC apoptosis assay, 17-71; format: cell-based, canine; conditions: 15 μg/mL CBD, VC 10.1±0.4%
Description: Apoptosis after 4 and 8 hours treatment is measured using Annexin-V staining (Invitrogen Annexin V-FITC staining kit, Carlsbad, California). Briefly, cells are detached with Accumax (Innovative Cell Technologies, San Diego, California), collected and centrifuged for 10 m at 1000 g at 4° C. The pellet is washed once with PBS before resuspension in Annexin Binding Buffer (ABB; 10 mM HEPES, 140 mM NaCl, 2.5 mM CaCl2, pH 7.4) at a density of approximately 1×10^6 cell/mL. […] After the incubation, ABB is added to the cell suspension and kept on ice until fluorescence is measured with the BD FACScalibur flow cytometer using an argon laser (BD Biosciences, Ashland, Oregon). Ten thousand events are collected per sample. Analysis is performed with the FlowJo software (Version 10.7.1. Becton, Dickinson, Ashland, Oregon) by first gating based on the forward- and side-scatter characteristics for each cell line followed by Annexin V-FITC positive cells. Negative fluorescence controls are unstained cells. Three independent replicates are examined for each treatment.

Sequence of CYP3A12 (P24463 whole entry): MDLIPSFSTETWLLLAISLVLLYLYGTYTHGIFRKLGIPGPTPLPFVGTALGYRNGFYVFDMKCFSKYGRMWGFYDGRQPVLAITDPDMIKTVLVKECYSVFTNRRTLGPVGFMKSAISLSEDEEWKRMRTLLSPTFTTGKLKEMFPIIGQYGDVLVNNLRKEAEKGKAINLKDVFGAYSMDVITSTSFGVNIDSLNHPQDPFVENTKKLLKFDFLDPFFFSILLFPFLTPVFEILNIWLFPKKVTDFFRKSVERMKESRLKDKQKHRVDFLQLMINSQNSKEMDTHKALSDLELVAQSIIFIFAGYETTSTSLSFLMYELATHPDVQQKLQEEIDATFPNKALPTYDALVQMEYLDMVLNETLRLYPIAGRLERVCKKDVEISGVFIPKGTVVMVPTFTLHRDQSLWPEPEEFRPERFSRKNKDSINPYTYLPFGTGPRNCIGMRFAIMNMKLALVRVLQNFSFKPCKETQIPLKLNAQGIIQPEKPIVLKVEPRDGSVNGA

C=C(C)[C@@H]1CCC(C)=C[C@H]1c1c(O)cc(CCCCC)cc1O [CBD, cannabidiol]
IC50 [1]: < 1000 nM
time-dependent inhibition (TDI) ([1]; CYP3A12, no preincubation vs 20 min preincubation, 10 μM): showed time-dependent inhibition (TDI)
P-gp substrate classification [2]: not a substrate for canine PGP
IC50 ([3]; Canis lupus familiaris, read-out: IC50 (Probit)): 4.1 µg/mL (≈ 13 µM)
concentrations that significantly diminished proliferation vs vehicle control ([3]; P<0.05): ≥ 5 µg/mL
percent trypan blue positive cells ([4]; 3.75 μg/mL CBD): 32±5%
percent trypan blue positive cells ([4]; 7.5 μg/mL CBD): 58±7%
percent trypan blue positive cells ([4]; 15 μg/mL CBD): 77±12%
percent trypan blue positive cells ([5]; 3.75 μg/mL CBD): 4±2%
percent trypan blue positive cells ([5]; 7.5 μg/mL CBD): 5±2%
percent trypan blue positive cells ([5]; 15 μg/mL CBD): 35±4%
Annexin V positive staining cells ([6]; 4 hours): 31.0±10.8%
Annexin V positive staining cells ([6]; 8 hours): 79.0±6.1%
